The target in assay [1] is T1, ETA receptors (rat aortic rings) (Rattus norvegicus, UniProt P26684).
T1 construct: The thoracic aorta or trachea were excised, dissected and cut in 3–5 mm rings; from tissue; host or cells: thoracic aorta rings of adult Wistar rats, endothelium removed
T1 sequence (P26684 21-426): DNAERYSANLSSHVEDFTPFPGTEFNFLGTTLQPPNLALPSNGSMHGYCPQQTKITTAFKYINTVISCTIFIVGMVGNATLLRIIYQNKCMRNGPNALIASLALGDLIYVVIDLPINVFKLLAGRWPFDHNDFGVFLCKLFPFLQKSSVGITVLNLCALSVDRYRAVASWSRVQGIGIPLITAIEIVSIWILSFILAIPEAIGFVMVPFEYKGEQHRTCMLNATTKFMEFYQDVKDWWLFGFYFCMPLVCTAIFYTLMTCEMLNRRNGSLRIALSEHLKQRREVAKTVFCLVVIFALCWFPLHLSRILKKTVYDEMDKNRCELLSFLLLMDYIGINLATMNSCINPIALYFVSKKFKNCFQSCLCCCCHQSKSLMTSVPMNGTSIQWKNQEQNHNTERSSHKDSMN
Briefly: Inhibition of endothelin-1-induced contraction on isolated rat aortic rings.
Method: (§1) 2) Inhibition of Endothelin-induced Contractions on Isolated Rat Aortic Rings (ETA Receptors) and Rat Tracheal Rings (ETB Receptors):
(§2) The functional inhibitory potency of the endothelin antagonists was assessed by their inhibition of the contraction induced by endothelin-1 on rat aortic rings (ETA receptors) and of the contraction induced by sarafotoxin S6c on rat tracheal rings (ETB receptors). Adult Wistar rats were anesthetized and exsanguinated. The thoracic aorta or trachea were excised, dissected and cut in 3–5 mm rings. The endothelium/epithelium was removed by gentle rubbing of the intimal surface. […] The rings were connected to force transducers and isometric tension was recorded (EMKA Technologies SA, Paris, France). The rings were stretched to a resting tension of 3 g (aorta) or 2 g (trachea). […] The functional inhibitory potency of the test compound was assessed by calculating the concentration ratio, i.e. the shift to the right of the EC50 induced by different concentrations of test compound. EC50 is the concentration of endothelin needed to get a half-maximal contraction, pA2 is the negative logarithm of the antagonist concentration which induces a two-fold shift in the EC50 value.

For assay [2], the target named is T2, human recombinant ETA receptor (Homo sapiens, UniProt P25101).
T2 construct: expressed in transfected cells; host or cells: CHO cells (microsomal membranes)
T2 sequence (P25101 21-427): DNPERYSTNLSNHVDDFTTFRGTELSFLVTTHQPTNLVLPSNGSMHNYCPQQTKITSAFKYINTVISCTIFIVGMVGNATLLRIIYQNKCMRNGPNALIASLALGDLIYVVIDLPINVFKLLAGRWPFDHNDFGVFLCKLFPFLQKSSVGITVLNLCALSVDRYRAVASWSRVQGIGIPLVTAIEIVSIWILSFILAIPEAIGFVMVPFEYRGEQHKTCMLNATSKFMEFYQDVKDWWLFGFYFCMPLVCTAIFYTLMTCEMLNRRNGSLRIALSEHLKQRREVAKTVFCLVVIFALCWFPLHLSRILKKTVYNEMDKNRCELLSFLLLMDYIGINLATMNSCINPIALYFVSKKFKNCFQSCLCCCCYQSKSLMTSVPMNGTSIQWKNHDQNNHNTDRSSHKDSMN
Briefly: Inhibition of [125I]ET-1 binding to membranes from CHO cells carrying human ETA receptors.

Assay [3] concerns the target T3, human recombinant ETB receptor (Homo sapiens, UniProt P24530).
T3 construct: expressed in transfected cells; host or cells: CHO cells (microsomal membranes)
T3 sequence (P24530 27-442): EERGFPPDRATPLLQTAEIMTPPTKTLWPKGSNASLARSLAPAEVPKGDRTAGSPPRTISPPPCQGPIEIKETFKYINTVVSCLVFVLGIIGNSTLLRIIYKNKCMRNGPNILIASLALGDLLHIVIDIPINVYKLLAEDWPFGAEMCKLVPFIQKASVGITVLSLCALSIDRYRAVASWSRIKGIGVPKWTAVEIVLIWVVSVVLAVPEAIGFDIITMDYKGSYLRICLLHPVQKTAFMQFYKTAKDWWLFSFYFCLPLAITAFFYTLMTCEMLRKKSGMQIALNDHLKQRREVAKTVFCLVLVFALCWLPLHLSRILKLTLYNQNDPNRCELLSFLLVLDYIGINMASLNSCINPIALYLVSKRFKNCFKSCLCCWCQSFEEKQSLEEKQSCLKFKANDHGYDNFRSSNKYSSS
In words: Inhibition of [125I]ET-1 binding to membranes from CHO cells carrying human ETB receptors.

The target of assay [4] is T4, ETB receptors (rat tracheal rings) (Rattus norvegicus, UniProt P21451).
T4 construct: The thoracic aorta or trachea were excised, dissected and cut in 3–5 mm rings; from tissue; host or cells: tracheal rings of adult Wistar rats, epithelium removed
T4 sequence (P21451 27-442): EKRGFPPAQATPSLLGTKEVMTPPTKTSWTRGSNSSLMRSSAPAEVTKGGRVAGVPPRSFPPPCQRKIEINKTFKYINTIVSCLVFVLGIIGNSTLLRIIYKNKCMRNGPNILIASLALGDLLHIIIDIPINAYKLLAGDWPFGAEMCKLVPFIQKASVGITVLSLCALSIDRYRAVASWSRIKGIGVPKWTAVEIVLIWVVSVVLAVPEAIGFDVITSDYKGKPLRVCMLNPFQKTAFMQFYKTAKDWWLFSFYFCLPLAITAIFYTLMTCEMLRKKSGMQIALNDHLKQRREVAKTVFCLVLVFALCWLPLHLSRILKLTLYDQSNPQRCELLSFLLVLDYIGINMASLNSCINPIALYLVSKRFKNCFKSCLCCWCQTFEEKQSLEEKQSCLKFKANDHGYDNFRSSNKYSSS
Briefly: Inhibition of sarafotoxin S6c-induced contraction on isolated rat tracheal rings.
Method: as §1, §2

Setting [5] is: read-out: pA2 value ETA (converted).

Where two headings read alike, the source gives them in different places. Where only a bound is given, the exact number is not on record here.

As usually defined, the IC50 is the concentration at which inhibition is half-maximal. With `COc1ccccc1Oc1c(NS(=O)(=O)Nc2ccc(C(C)C)cc2)nc(-c2ccncc2)nc1OCCOc1ncc(Br)cn1` [Example 5, 4-i-propyl-phenyl sulfamic acid-[6-[2-(5-bromo-pyrimidin-2-yloxy)-ethoxy]-5-(o-methoxy-phenoxy)-2-(4-pyridyl)-pyrimidin-4-yl]-amide], in assay [1] (setting [5]), the Kb is 224 nM. The half-inhibitory concentration (IC50) turned out to be 28 nM in assay [2] and 1280 nM in assay [3].
As for `O=S(=O)(NCc1ccccn1)Nc1ncnc(OCCOc2ncc(Br)cn2)c1-c1ccc(Cl)cc1` [Example 18], the Kb was greater than 10000 nM in assay [4] and 7.08 nM in assay [1] (setting [5]). Besides, the IC50 in assay [2] was 8.5 nM; in assay [3] it was 3330 nM.
`O=S(=O)(NCc1cccs1)Nc1ncnc(OCCOc2ncc(Br)cn2)c1-c1ccc(Cl)cc1` [Example 20]: the Kb in assay [1] is 61.7 nM. Further, the IC50 in assay [2] was 4.9 nM; in assay [3] it was 1720 nM.
Regarding `Cc1ccc(-c2c(NS(=O)(=O)NCc3ccccc3)nc(-c3ccncc3)nc2OCCOc2ncc(Br)cn2)cc1` [Example 32], the Kb in assay [1] (setting [5]) is 1.78 nM. In addition, the values for the IC50 in assay [2] and in assay [3] were 3.5 nM and 864 nM, respectively.
On to `COc1ccccc1Oc1c(NS(=O)(=O)NCc2ccccc2)nc(-c2ncccn2)nc1OCCOC(=O)Nc1ccccn1` [Example 41], for which, in assay [1], the Kb was 4.27 nM. For the same compound, the figures for the IC50 in assay [2] and in assay [3] were 3.2 nM and 41.6 nM, respectively.
As to `COc1ccc(CNS(=O)(=O)Nc2nc(-c3ncccn3)nc(OC)c2Oc2ccccc2OC)cc1` [Example 51], the Kb in assay [1] (setting [5]) was 282 nM. Further, the values for the half-maximal inhibitory concentration (IC50) in assay [2] and in assay [3] were 13.4 nM and 306 nM, respectively.
On to `CSc1cnc(OCCOc2ncnc(NS(=O)(=O)NCc3ccccc3)c2-c2ccc(Br)cc2)nc1` [Example 102], for which the values for the Kb in assay [4] and in assay [1] were 174 nM and 3.98 nM, respectively. The results for the half-inhibitory concentration (IC50) in assay [2] and in assay [3] were 0.46 nM and 65 nM, respectively.
In turn, `Cc1ccc(-c2c(NS(=O)(=O)NCC3CC3)ncnc2OCCOc2ncc(Br)cn2)cc1` [Example 119] had a Kb in assay [1] of 41.7 nM. Also, the IC50 in assay [2] was 4.2 nM; in assay [3], greater than 1000 nM.
The matching figures for `COc1ccccc1Oc1c(NS(=O)(=O)NCC2CCCCC2)nc(-c2ncccn2)nc1OCCOc1ncc(Br)cn1` [Example 133]: 19.1 nM, 1.7 nM and 212 nM.
The matching figures for `COc1ccc(CNS(=O)(=O)Nc2nc(-c3ccncc3)nc(OC)c2Oc2ccccc2OC)cc1` [Example 161]: 513 nM, 6.2 nM and greater than 1000 nM.
Take `COc1ccccc1Oc1c(NS(=O)(=O)NCc2ccccc2)nc(SC)nc1OCCO` [Example 203, benzylsulfamic acid [6-(2-hydroxy-ethoxy)-5-(2-methoxy-phenoxy)-2-methylsulfanyl-pyrimidin-4-yl]-amide]: the Kb was 1450 nM in assay [4] (rat tracheal rings, contraction induced by sarafotoxin S6c, 10 min incubation, read-out: pA2 value ETB (converted)) and 20.4 nM in assay [1] (setting [5]).

Values taken from patent US7094781B2, “Sulfamides and their use as endothelin receptor antagonists” (Actelion Pharmaceuticals Ltd., priority 2000, dated 2006).
